Source: PubChem BioAssay (NCI)
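Protocol summary: plate cells (96-well), add compound at 5 concentrations, incubate 48 h, interpolate endpoints linearly. Here, GI50 denotes the concentration required for 50% inhibition of growth. Definition used: TGI = concentration required for complete inhibition of growth.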

Assays:
Test in all cases: NCI anticancer screen, dose series, 48 h
[1] = test system: 786-0 renal
[2] = test system: A498 renal
[3] = test system: A549 NSCLC
[4] = test system: ACHN renal
[5] = test system: BT-549 breast
[6] = test system: CAKI-1 renal
[7] = test system: CCRF-CEM leukemia
[8] = test system: COLO 205 colon
[9] = test system: DU-145 prostate
[10] = test system: EKVX NSCLC
[11] = test system: HCC-2998 colon
[12] = test system: HCT-15 colon
[13] = test system: HL-60(TB) leukemia
[14] = test system: HOP-62 NSCLC
[15] = test system: HOP-92 NSCLC
[16] = test system: HS 578T breast
[17] = test system: HT29 colon
[18] = test system: IGROV1 ovarian
[19] = test system: K-562 leukemia
[20] = test system: KM12 colon
[21] = test system: LOX IMVI melanoma
[22] = test system: MALME-3M melanoma
[23] = test system: MCF7 breast
[24] = test system: MDA-MB-231 breast
[25] = test system: MDA-MB-435
[26] = test system: MOLT-4 leukemia
[27] = test system: NCI-H226 lung
[28] = test system: NCI-H23 lung
[29] = test system: NCI-H460 lung
[30] = test system: NCI-H522 lung
[31] = test system: NCI/ADR-RES ovarian
[32] = test system: OVCAR-3 ovarian
[33] = test system: OVCAR-4 ovarian
[34] = test system: OVCAR-5 ovarian
[35] = test system: OVCAR-8 ovarian
[36] = test system: PC-3 prostate
[37] = test system: RPMI-8226 leukemia
[38] = test system: RXF 393 renal
[39] = test system: SF-268 CNS
[40] = test system: SF-295 CNS
[41] = test system: SF-539 CNS
[42] = test system: SK-MEL-2 melanoma
[43] = test system: SK-MEL-28 melanoma
[44] = test system: SK-MEL-5 melanoma
[45] = test system: SK-OV-3 ovarian
[46] = test system: SN12C renal
[47] = test system: SNB-19 CNS
[48] = test system: SNB-75 CNS
[49] = test system: SR leukemia
[50] = test system: SW-620 colon
[51] = test system: T-47D breast
[52] = test system: TK-10 renal
[53] = test system: U251 CNS
[54] = test system: UACC-257 melanoma
[55] = test system: UACC-62 melanoma
[56] = test system: UO-31 renal
[57] = test system: HCT-116 colon
[58] = test system: M14 melanoma
[59] = test system: MDA-N

O=C(CCCc1c[nH]c2ccccc12)NC1CC(=O)c2c(Br)sc(Br)c21 (configuration not stated)
GI50 [1]: 19.2 µM | TGI [1]: 34.9 µM | GI50 [2]: 24.2 µM | TGI [2]: 40.5 µM | GI50 [3]: 33.4 µM | TGI [3]: > 100 µM | GI50 [4]: 16.5 µM | TGI [4]: 30.4 µM | GI50 [5]: 17.4 µM | TGI [5]: 37.1 µM | GI50 [6]: 10.2 µM | TGI [6]: 31.6 µM | GI50 [7]: 12.9 µM | TGI [7]: > 100 µM | GI50 [8]: 19.8 µM | TGI [8]: 41.3 µM | GI50 [9]: 23.5 µM | TGI [9]: > 100 µM | GI50 [10]: 18.9 µM | TGI [10]: 37.3 µM | GI50 [11]: 2.06 µM | TGI [11]: 4.03 µM | GI50 [12]: 3.51 µM | TGI [12]: 10.9 µM | GI50 [13]: 5.04 µM | TGI [13]: 67.1 µM | GI50 [14]: 18.3 µM | TGI [14]: 33 µM | GI50 [15]: 17.9 µM | TGI [15]: 40 µM | GI50 [16]: 6.44 µM | TGI [16]: 51.3 µM | GI50 [17]: 7.13 µM | TGI [17]: 22 µM | GI50 [18]: 9.05 µM | TGI [18]: 40.5 µM | GI50 [19]: 2.01 µM | TGI [19]: 5.56 µM | GI50 [20]: 23.5 µM | TGI [20]: 71.2 µM | GI50 [21]: 1.9 µM | TGI [21]: 3.75 µM | GI50 [22]: 16.4 µM | TGI [22]: 48 µM | GI50 [23]: 10.1 µM | TGI [23]: 29.5 µM | GI50 [24]: 16.5 µM | TGI [24]: 32.1 µM | GI50 [25]: 17.8 µM | TGI [25]: 57.3 µM | GI50 [26]: 10.2 µM | TGI [26]: 55.4 µM | GI50 [27]: 19.6 µM | TGI [27]: 35.5 µM | GI50 [28]: 12.2 µM | TGI [28]: 26.1 µM | GI50 [29]: 19.2 µM | TGI [29]: 38.7 µM | GI50 [30]: 21.1 µM | TGI [30]: 52.2 µM | GI50 [31]: 23.3 µM | TGI [31]: 70.3 µM | GI50 [32]: 10.4 µM | TGI [32]: 29.3 µM | GI50 [33]: 12.8 µM | TGI [33]: 25.9 µM | GI50 [34]: 16 µM | TGI [34]: 31.7 µM | GI50 [35]: 9.41 µM | TGI [35]: > 100 µM | GI50 [36]: 21 µM | TGI [36]: 75.7 µM | GI50 [37]: 4.37 µM | TGI [37]: > 100 µM | GI50 [38]: 14.7 µM | TGI [38]: 80.8 µM | GI50 [39]: 10.5 µM | TGI [39]: 27.1 µM | GI50 [40]: 22.7 µM | TGI [40]: 54.4 µM | GI50 [41]: 23.1 µM | TGI [41]: 50.1 µM | GI50 [42]: 30.5 µM | TGI [42]: > 100 µM | GI50 [43]: 2.77 µM | TGI [43]: 9.02 µM | GI50 [44]: 14.5 µM | TGI [44]: 30 µM | GI50 [45]: 22.7 µM | TGI [45]: 55.2 µM | GI50 [46]: 17.3 µM | TGI [46]: 33 µM | GI50 [47]: 14.3 µM | TGI [47]: 29 µM | GI50 [48]: 13.9 µM | TGI [48]: 27.7 µM | GI50 [49]: 2.62 µM | TGI [49]: 6.79 µM | GI50 [50]: 18.8 µM | TGI [50]: 41 µM | GI50 [51]: 26.5 µM | TGI [51]: > 100 µM | GI50 [52]: 26 µM | TGI [52]: > 100 µM | GI50 [53]: 7.29 µM | TGI [53]: 19.9 µM | GI50 [54]: 19.2 µM | TGI [54]: 48.1 µM | GI50 [55]: 14.2 µM | TGI [55]: 27.9 µM | GI50 [56]: 22.2 µM | TGI [56]: 63.1 µM

CC(=O)OCCC1c2ccccc2-n2nc(-c3ccccc3)c(O)c21 (configuration not stated)
TGI [1]: 38.4 µM | TGI [2]: 36.4 µM | TGI [3]: 37.3 µM | TGI [4]: 45.1 µM | TGI [5]: 33.3 µM | TGI [6]: 33.6 µM | TGI [7]: 50 µM | TGI [8]: 40.1 µM | TGI [9]: 41.1 µM | TGI [10]: 36 µM | TGI [11]: 56 µM | TGI [57]: 30.4 µM | TGI [12]: 55.1 µM | TGI [13]: 38.4 µM | TGI [14]: 30.1 µM | TGI [15]: 27.4 µM | TGI [16]: 54.9 µM | TGI [17]: 42.4 µM | TGI [19]: 37.7 µM | TGI [20]: 38.5 µM | TGI [21]: 27.4 µM | TGI [58]: 28.6 µM | TGI [23]: 22.9 µM | TGI [24]: 43.3 µM | TGI [25]: 32.3 µM | TGI [59]: 33.2 µM | TGI [26]: 56.3 µM | TGI [27]: 64.4 µM | TGI [28]: 34.5 µM | TGI [29]: 28.3 µM | TGI [30]: 32.3 µM | TGI [31]: 47 µM | TGI [32]: 49.3 µM | TGI [33]: 40.5 µM | TGI [34]: 38.7 µM | TGI [35]: 55.9 µM | TGI [36]: 34.3 µM | TGI [37]: 33.7 µM | TGI [38]: 26 µM | TGI [39]: 90.6 µM | TGI [40]: 45 µM | TGI [41]: 44.7 µM | TGI [42]: 96.6 µM | TGI [43]: 30.6 µM | TGI [44]: 33 µM | TGI [46]: 31.1 µM | TGI [47]: 32.2 µM | TGI [48]: 37.7 µM | TGI [49]: 38.7 µM | TGI [50]: 31.6 µM | TGI [52]: 43.2 µM | TGI [53]: 26.7 µM | TGI [54]: 32.5 µM | TGI [56]: 30.8 µM

NCC(O)CNCC/C=C\C/C=C\C/C=C\C/C=C\C/C=C\C/C=C\CCCCC/C=C\CCNCC(O)CN (configuration not stated)
TGI [1]: 3.07 µM | TGI [2]: 3.34 µM | TGI [4]: 3.35 µM | TGI [5]: 7.47 µM | TGI [6]: 3.63 µM | TGI [8]: 3.41 µM | TGI [9]: 3.26 µM | TGI [10]: 2.15 µM | TGI [57]: 3.18 µM | TGI [12]: 3.03 µM | TGI [14]: 3.53 µM | TGI [16]: 2.74 µM | TGI [19]: > 100 µM | TGI [22]: 4.34 µM | TGI [24]: 3.18 µM | TGI [59]: 3.09 µM | TGI [27]: 13.4 µM | TGI [31]: 2.82 µM | TGI [32]: 3.42 µM | TGI [33]: 3.61 µM | TGI [34]: 3.41 µM | TGI [35]: 3.21 µM | TGI [36]: 3.49 µM | TGI [40]: 4.29 µM | TGI [43]: 14 µM | TGI [45]: 5.59 µM | TGI [46]: 3.03 µM | TGI [48]: 3.2 µM | TGI [52]: 2.96 µM | TGI [54]: 4.43 µM | TGI [56]: 3.72 µM
